Measured values published in patent US11149031B2, “Substituted N-(3-fluoropropyl)-pyrrolidine compounds, processes for their preparation and therapeutic uses thereof” (SANOFI, priority 2016, dated 2021).

How the values were obtained:
[1] = target: His6-ERα298-554 WT (ERα ligand-binding domain) (Homo sapiens (Human), UniProt P03372); experiment: Test A: biochemical antagonist activity, LanthaScreen TR-FRET ERα coactivator assay, WT; conditions: protocol with 3 nM estradiol; read-out: Antagonism WT IC50
Procedure: (§1) Test A: Biochemical Antagonist Activity on Wild Type (WT) and Mutants
(§2) Estrogen Receptors Test A involves measuring the in vitro antagonist activity of the compounds of the invention on estrogen receptors.
(§3) The measurements of the antagonist activities were made using an estrogen receptor coactivator assay as described hereunder.
(§4) Antagonistic potency of compounds was evaluated using LanthaScreen® TR-FRET ERα Coactivator Assay (ThermoFisher) with modifications. […] The assay works in a homogeneous mix-and-read format. In a typical experiment, a 4 μL mixture of 0.5 nM His6-ERα298-554, 0.5 nM Tb-labeled His6 antibody, 250 nM PGC1a peptide, and 3 nM estradiol (or 10 nM estradiol) in 100 mM potassium phosphate, pH 7.4, 0.01% Tween-20, 0.02% NaN3, 5 mM DTT, was added to 40 nL test compound in DMSO and incubated overnight at room temperature. The TR-FRET 520:495 nm emission ratio was calculated and used to determine the IC50 value from a dose response curve fit to the 4-parameter logistic equation.

[2] = target: His6-ERα298-554 D538G mutant (ERα ligand-binding domain) (Homo sapiens (Human), UniProt P03372, D538G); experiment: Test A: biochemical antagonist activity, LanthaScreen TR-FRET ERα coactivator assay, D538G mutant; conditions: protocol with 3 nM estradiol; read-out: Antagonism D538G IC50
Procedure: as §1, §2, §3, §4

[3] = target: His6-ERα298-554 Y537S mutant (ERα ligand-binding domain) (Homo sapiens (Human), UniProt P03372, Y537S); experiment: Test A: biochemical antagonist activity, LanthaScreen TR-FRET ERα coactivator assay, Y537S mutant; conditions: protocol with 3 nM estradiol; read-out: Antagonism Y537S IC50
Procedure: as §1, §2, §3, §4

ERα in MCF7 cells = ERα in MCF7 cells (Homo sapiens (Human), UniProt P03372); experiment: Test C: estrogen receptor degradation activity, ERα in cell western assay in MCF7 cells; assay type: cell-based; conditions: for DC50: 4 hours post compound addition, ERα in cell western, read-out: Degradation IC50; for % Degradation at 3 μM: 4 hours, relative to fulvestrant
Procedure: Test C: Estrogen Receptor Degradation Activity
Test C involves measuring the in vitro degradation activity of the compounds of the invention.
The measurements of the degradation activities were made using abreast cancer cell ERα in cell western assay as described hereunder.
MCF7 cells (ATCC) were seeded in 384 wells microplate (collagen coated) at concentration of >9990 cells/30 μL per well in red phenol free MEM alpha medium (invitrogen) containing 5% charcoal dextran striped FBS. The following day, 9 points serial 1:5 dilution of each compound were added to the cells in 2.5 μL at final concentrations ranging from 3-0.000018 μM or 0.1 μM for fulvestrant (using as positive control). At 4 hours post compounds addition the cells were fixed by adding 25 μL of formalin (final concentration 5% formalin containing 0.1% triton) for 10 minutes at room temperature and then washed twice with PBS. Then, 50 μL of LI-COR blocking buffer containing 0.1% Triton was added to plate for 30 minutes at room temperature. LI-COR blocking buffer was removed and cells were incubated overnight at cold room with 50 μL anti-ER rabbit monoclonal antibody (Thermo scientific MA1-39540) diluted at 1:>999 in LI-COR blocking buffer containing 0.1% tween-20. Wells which were treated with blocking but no antibody were used as background control. Wells were washed twice with PBS (0.1% tween-20) and incubated at 37° C. for 60 minutes in LI-COR (0.1% tween-20) containing goat anti-rabbit antibody Alexa 488 (1:>999) and Syto-64 a DNA dye (2 μM final concentration). Cells were then washed 3 times in PBS and scanned in ACUMEN explorer (TTP-Labtech). Integrated intensities in the green fluorescence and red fluorescence were measured to determine the levels of ERα and DNA respectively.

Chain of His6-ERα298-554 Y537S mutant (ERα ligand-binding domain) (P03372 298-554 Y537S): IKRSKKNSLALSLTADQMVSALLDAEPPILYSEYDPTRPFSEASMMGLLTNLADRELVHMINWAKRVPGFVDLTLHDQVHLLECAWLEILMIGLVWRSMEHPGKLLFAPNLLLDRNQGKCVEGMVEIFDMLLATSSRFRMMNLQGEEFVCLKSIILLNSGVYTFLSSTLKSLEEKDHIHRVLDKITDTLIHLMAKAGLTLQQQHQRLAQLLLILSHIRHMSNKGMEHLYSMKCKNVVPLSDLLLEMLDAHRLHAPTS
Chain of His6-ERα298-554 WT (ERα ligand-binding domain) (P03372 298-554): as the sequence (P03372 298-554 Y537S) above, with S240Y counted along it
Chain of ERα in MCF7 cells (P03372 whole entry): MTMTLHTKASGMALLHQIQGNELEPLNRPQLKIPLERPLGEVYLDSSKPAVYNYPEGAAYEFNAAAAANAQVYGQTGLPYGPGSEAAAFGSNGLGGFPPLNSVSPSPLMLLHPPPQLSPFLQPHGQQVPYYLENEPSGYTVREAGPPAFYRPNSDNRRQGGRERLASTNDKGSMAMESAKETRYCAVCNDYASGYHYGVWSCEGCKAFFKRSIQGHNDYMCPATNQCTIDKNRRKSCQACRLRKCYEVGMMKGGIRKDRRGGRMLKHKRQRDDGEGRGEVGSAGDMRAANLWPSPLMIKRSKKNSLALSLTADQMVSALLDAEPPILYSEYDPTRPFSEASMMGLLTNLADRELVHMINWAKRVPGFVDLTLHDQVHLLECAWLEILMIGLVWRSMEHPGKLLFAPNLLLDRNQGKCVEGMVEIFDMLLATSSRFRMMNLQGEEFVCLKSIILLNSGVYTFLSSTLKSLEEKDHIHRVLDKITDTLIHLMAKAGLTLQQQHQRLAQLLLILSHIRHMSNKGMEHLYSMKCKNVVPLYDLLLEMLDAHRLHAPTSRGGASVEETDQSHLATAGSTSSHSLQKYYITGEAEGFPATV
Chain of His6-ERα298-554 D538G mutant (ERα ligand-binding domain) (P03372 298-554 D538G): as the sequence (P03372 298-554 Y537S) above, with S240Y, D241G counted along it

Structure (SMILES) | IC50 [1] [nM] | IC50 [2] [nM] | IC50 [3] [nM] | DC50 (ERα in MCF7 cells) [nM] | % Degradation at 3 μM (ERα in MCF7 cells) [%]
Oc1ccc2c(c1)SCC(c1ccc(F)cc1Cl)=C2c1ccc(O[C@H]2CCN(CCCF)C2)cc1 [Example 22, 3-(2-chloro-4-fluoro-phenyl)-4-[4-[(3S)-1-(3-fluoropropyl)pyrrolidin-3-yl]oxyphenyl]-2H-thiochromen-7-ol] | 6 | 27 | 9 | 1 | 95
Oc1cccc(C2=C(c3ccc(O[C@H]4CCN(CCCF)C4)cc3)c3ccc(O)cc3OCC2)c1 [Example 91, 5-[4-[(3S)-1-(3-fluoropropyl)pyrrolidin-3-yl]oxyphenyl]-4-(3-hydroxyphenyl)-2,3-dihydro-1-benzoxepin-8-ol] | 2 | 10 | 6 | 0.4 | 91
Oc1ccc2c(c1)OCCC(c1ccc(F)cc1Cl)=C2c1ccc(O[C@H]2CCN(CCCF)C2)cc1 [Example 92, 4-(2-chloro-4-fluoro-phenyl)-5-[4-[(3S)-1-(3-fluoropropyl)pyrrolidin-3-yl]oxyphenyl]-2,3-dihydro-1-benzoxepin-8-ol] | 7 | 59 | 22 | 0.5 | 96
Oc1ccc2c(c1)OCCC(c1ccc3[nH]ccc3c1)=C2c1ccc(O[C@H]2CCN(CCCF)C2)cc1 [Example 93, 5-[4-[(3S)-1-(3-fluoropropyl)pyrrolidin-3-yl]oxyphenyl]-4-(1H-indol-5-yl)-2,3-dihydro-1-benzoxepin-8-ol] | 8 | 59 | 26 | 0.4 | 87
Oc1ccc(C2=C(c3ccc(O[C@H]4CCN(CCCF)C4)cc3)c3ccc(O)cc3OCC2)c(F)c1 [Example 94, 4-(2-fluoro-4-hydroxy-phenyl)-5-[4-[(3S)-1-(3-fluoropropyl)pyrrolidin-3-yl]oxyphenyl]-2,3-dihydro-1-benzoxepin-8-ol] | 2 | 10 | 6 | 0.2 | 87
Oc1ccc2c(c1)OCCC(c1cccc(F)c1Cl)=C2c1ccc(O[C@H]2CCN(CCCF)C2)cc1 [Example 95, 4-(2-chloro-3-fluoro-phenyl)-5-[4-[(3S)-1-(3-fluoropropyl)pyrrolidin-3-yl]oxyphenyl]-2,3-dihydro-1-benzoxepin-8-ol] | 6 | 43 | 20 | 0.2 | 93
Oc1ccc2c(c1)OCCC(c1ccc(Cl)c(F)c1)=C2c1ccc(O[C@H]2CCN(CCCF)C2)cc1 [Example 97, 4-(4-chloro-3-fluoro-phenyl)-5-[4-[(3S)-1-(3-fluoropropyl)pyrrolidin-3-yl]oxyphenyl]-2,3-dihydro-1-benzoxepin-8-ol] | 50 | 358 | 18 | 0.2 | 94
Cc1cc(C2=C(c3ccc(O[C@H]4CCN(CCCF)C4)cc3)c3ccc(O)cc3OCC2)ccc1Cl [Example 99, 4-(4-chloro-3-methyl-phenyl)-5-[4-[(3S)-1-(3-fluoropropyl)pyrrolidin-3-yl]oxyphenyl]-2,3-dihydro-1-benzoxepin-8-ol] | 5 | 36 | 25 | 0.7 | 89
Cc1cc(F)ccc1C1=C(c2ccc(O[C@H]3CCN(CCCF)C3)cc2)c2ccc(O)cc2OCC1 [Example 100, 4-(4-fluoro-2-methyl-phenyl)-5-[4-[(3S)-1-(3-fluoropropyl)pyrrolidin-3-yl]oxyphenyl]-2,3-dihydro-1-benzoxepin-8-ol] | 7 | 54 | 25 | 0.2 | 88
Cc1c(Cl)cccc1C1=C(c2ccc(O[C@H]3CCN(CCCF)C3)cc2)c2ccc(O)cc2OCC1 [Example 101, 4-(3-chloro-2-methyl-phenyl)-5-[4-[(3S)-1-(3-fluoropropyl)pyrrolidin-3-yl]oxyphenyl]-2,3-dihydro-1-benzoxepin-8-ol] | 6 | 50 | 25 | 0.6 | 92
Oc1ccc2c(c1)OCCC(c1ccc3c(c1)CCN3)=C2c1ccc(O[C@H]2CCN(CCCF)C2)cc1 [Example 104, 5-[4-[(3S)-1-(3-fluoropropyl)pyrrolidin-3-yl]oxyphenyl]-4-indolin-5-yl-2,3-dihydro-1-benzoxepin-8-ol] | 12 | 54 | 23 | 0.2 | 88
Cc1ccc(C2=C(c3ccc(O[C@H]4CCN(CCCF)C4)cc3)c3ccc(O)c(Cl)c3OCC2)c(F)c1 [Example 108, 9-chloro-4-(2-fluoro-4-methyl-phenyl)-5-[4-[(3S)-1-(3-fluoropropyl)pyrrolidin-3-yl]oxyphenyl]-2,3-dihydro-1-benzoxepin-8-ol] | 30 | 221 | 129 | 3 | 86
Cc1c(Cl)cccc1C1=C(c2ccc(O[C@H]3CCN(CCCF)C3)cc2)c2ccc(O)c(Cl)c2OCC1 [Example 109, 9-chloro-4-(3-chloro-2-methyl-phenyl)-5-[4-[(3S)-1-(3-fluoropropyl)pyrrolidin-3-yl]oxyphenyl]-2,3-dihydro-1-benzoxepin-8-ol] | 29 | 215 | 150 | 1 | 90
Cc1ccc(C2=C(c3ccc(O[C@H]4CCN(CCCF)C4)cc3)c3ccc(O)c(C)c3OCC2)c(F)c1 [Example 111, 4-(2-fluoro-4-methyl-phenyl)-5-[4-[(3S)-1-(3-fluoropropyl)pyrrolidin-3-yl]oxyphenyl]-9-methyl-2,3-dihydro-1-benzoxepin-8-ol] | 91 | 822 | 407 | 6 | 86
Cc1c(Cl)cccc1C1=C(c2ccc(O[C@H]3CCN(CCCF)C3)cc2)c2ccc(O)c(C)c2OCC1 [Example 112, 4-(3-chloro-2-methyl-phenyl)-5-[4-[(3S)-1-(3-fluoropropyl)pyrrolidin-3-yl]oxyphenyl]-9-methyl-2,3-dihydro-1-benzoxepin-8-ol] | 91 | 838 | 543 | 4 | 87
Oc1ccc2c(c1Cl)OCCC(c1ccc3[nH]ccc3c1)=C2c1ccc(O[C@H]2CCN(CCCF)C2)cc1 [Example 114, 9-chloro-5-[4-[(3S)-1-(3-fluoropropyl)pyrrolidin-3-yl]oxyphenyl]-4-(1H-indol-5-yl)-2,3-dihydro-1-benzoxepin-8-ol] | 29 | 178 | 104 | 5 | 71
Oc1ccc2c(c1Cl)OCCC(c1ccc3c(c1)CCN3)=C2c1ccc(O[C@H]2CCN(CCCF)C2)cc1 [Example 115, 9-chloro-5-[4-[(3S)-1-(3-fluoropropyl)pyrrolidin-3-yl]oxyphenyl]-4-indolin-5-yl-2,3-dihydro-1-benzoxepin-8-ol] | 88 | 322 | 200 | 6 | 77
Oc1ccc2c(c1)OCCC(c1cccc3c1CCN3)=C2c1ccc(O[C@H]2CCN(CCCF)C2)cc1 [Example 117, 5-[4-[(3S)-1-(3-fluoropropyl)pyrrolidin-3-yl]oxyphenyl]-4-indolin-4-yl-2,3-dihydro-1-benzoxepin-8-ol] | 32 | 309 | 214 | 3 | 92
